Reference: ChEMBL document CHEMBL1201862, “PubChem BioAssay data set” (2004)
Calls of active or inactive are those of the source.

How the values were obtained:
[1] = A Cell Based Secondary Assay To Explore Cytotoxicity of Compounds that Sensitize Mycobacterium Tuberculosis to Beta-Lactam Antibiotics.; type: functional
[2] = target: DNA dC->dU-editing enzyme APOBEC-3A (Homo sapiens, UniProt P31941); assay: Dose Response confirmation of small molecule APOBEC3A DNA Deaminase Inhibitors via a fluorescence-based single-stranded DNA deaminase assay. [Related pubchem assays (depositor defined):AID493011, AID493024]; type: functional
[3] = target: T1, Carboxy-terminal domain RNA polymerase II polypeptide A small phosphatase 1 (Homo sapiens, UniProt Q9GZU7); assay: inhibitors of CTDSP1, concentration-response testing, biochemical assay, absorbance-based, actives from ultra-high-throughput screening (AID 540297); type: functional
T1 sequence (Q9GZU7 whole entry): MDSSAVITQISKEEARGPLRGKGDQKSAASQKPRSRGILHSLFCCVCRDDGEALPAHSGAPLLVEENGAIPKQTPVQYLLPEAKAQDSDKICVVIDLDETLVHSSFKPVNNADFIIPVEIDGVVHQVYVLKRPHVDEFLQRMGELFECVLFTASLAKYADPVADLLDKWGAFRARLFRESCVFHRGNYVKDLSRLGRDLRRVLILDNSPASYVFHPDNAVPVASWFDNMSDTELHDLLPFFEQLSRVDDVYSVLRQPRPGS

[4] = target: DNA dC->dU-editing enzyme APOBEC-3G (Homo sapiens, UniProt Q9HC16); type: functional;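 further: Dose-response counterscreen measuring inhibition of APOBEC3G DNA deaminase activity, run while confirming APOBEC3A inhibitors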
[5] = target: T2, Calpain-2 catalytic subunit (Sus scrofa, UniProt P43367); assay: pig calpain II inhibitor potency, dose response, biochemical, fluorogenic peptide substrate (AID 1420); type: functional
T2 sequence (P43367 whole entry): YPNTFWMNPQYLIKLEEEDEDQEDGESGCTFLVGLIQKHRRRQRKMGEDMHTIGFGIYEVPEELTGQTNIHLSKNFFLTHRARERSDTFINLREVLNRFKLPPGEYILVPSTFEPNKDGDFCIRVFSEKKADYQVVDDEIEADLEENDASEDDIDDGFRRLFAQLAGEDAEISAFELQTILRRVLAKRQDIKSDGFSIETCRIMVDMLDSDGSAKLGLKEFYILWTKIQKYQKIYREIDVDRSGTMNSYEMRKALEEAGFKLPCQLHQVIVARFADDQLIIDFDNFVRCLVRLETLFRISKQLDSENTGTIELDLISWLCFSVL

[6] = target: T3, DNA repair protein RAD52 homolog (Homo sapiens, UniProt P43351); type: functional, biochemical
T3 sequence (P43351 whole entry): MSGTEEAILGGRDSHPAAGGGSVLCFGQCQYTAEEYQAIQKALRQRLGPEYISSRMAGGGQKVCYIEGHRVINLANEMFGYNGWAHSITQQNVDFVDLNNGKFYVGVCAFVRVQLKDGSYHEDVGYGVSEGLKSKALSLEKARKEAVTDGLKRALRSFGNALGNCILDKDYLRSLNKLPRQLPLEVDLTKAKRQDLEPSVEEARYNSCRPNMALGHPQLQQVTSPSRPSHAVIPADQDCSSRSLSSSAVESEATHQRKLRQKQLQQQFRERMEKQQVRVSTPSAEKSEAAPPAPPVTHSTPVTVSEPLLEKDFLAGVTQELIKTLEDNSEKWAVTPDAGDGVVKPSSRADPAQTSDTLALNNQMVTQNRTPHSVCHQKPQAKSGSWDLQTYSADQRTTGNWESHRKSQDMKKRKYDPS

[7] = target: T4, DNA repair and recombination protein RAD54-like (Homo sapiens, UniProt Q92698); assay: inhibitors of human RAD54 branch migration, confirmation, biochemical, fluorescence, cherry-picked samples, dose series (AID 651657); type: functional
T4 sequence (Q92698 whole entry): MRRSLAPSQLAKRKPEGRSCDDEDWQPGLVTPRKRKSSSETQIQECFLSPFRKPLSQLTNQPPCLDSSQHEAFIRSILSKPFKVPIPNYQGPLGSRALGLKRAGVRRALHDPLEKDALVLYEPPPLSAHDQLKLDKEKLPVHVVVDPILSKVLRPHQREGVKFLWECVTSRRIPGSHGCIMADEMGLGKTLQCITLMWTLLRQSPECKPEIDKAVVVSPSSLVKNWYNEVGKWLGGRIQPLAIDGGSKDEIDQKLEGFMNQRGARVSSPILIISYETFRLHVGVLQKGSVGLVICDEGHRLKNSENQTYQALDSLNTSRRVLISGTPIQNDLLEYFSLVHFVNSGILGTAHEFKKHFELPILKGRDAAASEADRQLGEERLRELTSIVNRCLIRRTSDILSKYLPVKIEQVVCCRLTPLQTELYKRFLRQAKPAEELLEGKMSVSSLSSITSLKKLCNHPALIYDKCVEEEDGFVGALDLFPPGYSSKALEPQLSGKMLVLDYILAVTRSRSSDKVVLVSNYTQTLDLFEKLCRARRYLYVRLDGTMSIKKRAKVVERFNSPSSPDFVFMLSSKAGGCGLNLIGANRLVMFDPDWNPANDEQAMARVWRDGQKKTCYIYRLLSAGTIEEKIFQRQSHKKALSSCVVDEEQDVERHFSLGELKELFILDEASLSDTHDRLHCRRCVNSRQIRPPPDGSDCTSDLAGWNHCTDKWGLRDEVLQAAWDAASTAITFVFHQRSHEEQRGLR

[8] = Luminescence-based cell-based high throughput dose response assay to identify activators of the DAF-12 from the parasite S. stercoralis (ssDAF-12).; type: functional
[9] = cytotoxicity toward DRD oncogenic fibroblasts, dose response, cell-based, non-viral oncogenic, luminescence (AID 1934); type: functional; settings: Homo sapiens
[10] = tested on: BJ; assay: cytotoxicity toward BJ-TERT-LT-ST fibroblasts, dose response, cell-based, RAS-independent, luminescence (AID 1935); type: functional; settings: Homo sapiens;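 further: BJ fibroblasts immortalized with TERT plus LT and ST oncogenes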
[11] = tested on: BJ; assay: cells; type: functional, cell-based; settings: Homo sapiens
[12] = tested on: BJ; assay: cytotoxicity toward BJ-TERT fibroblasts, dose response, cell-based, RAS-independent, luminescence (AID 1933); type: functional; settings: Homo sapiens
[13] = Luminescence Cell-Based Dose Retest to Confirm Inhibitors of Cancer Stem Cells. [Related pubchem assays (depositor defined):AID2717, AID2721]; type: functional; settings: Homo sapiens
[14] = target: T5, Streptokinase A (Streptococcus pyogenes serotype M1, UniProt P10520); assay: S. pyogenes streptokinase expression inhibitors, potency, dose response, plasminogen activation absorbance, OD405 (AID 1914); type: functional, Streptococcus pyogenes M1 GAS;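 further: secreted streptokinase activity via plasminogen activation per viability signal from cell pellet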
T5 sequence (P10520 whole entry): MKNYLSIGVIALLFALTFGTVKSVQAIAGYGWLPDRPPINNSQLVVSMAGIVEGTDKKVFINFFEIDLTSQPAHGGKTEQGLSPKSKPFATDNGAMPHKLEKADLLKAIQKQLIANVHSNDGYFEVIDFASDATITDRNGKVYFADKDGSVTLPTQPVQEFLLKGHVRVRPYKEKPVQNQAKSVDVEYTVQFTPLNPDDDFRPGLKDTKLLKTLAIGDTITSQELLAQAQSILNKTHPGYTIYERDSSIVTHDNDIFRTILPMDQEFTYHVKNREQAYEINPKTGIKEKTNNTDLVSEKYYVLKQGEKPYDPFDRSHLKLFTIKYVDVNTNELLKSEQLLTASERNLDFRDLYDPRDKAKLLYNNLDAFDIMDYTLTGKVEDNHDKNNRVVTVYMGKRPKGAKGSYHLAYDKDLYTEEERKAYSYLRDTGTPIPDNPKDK

[15] = tested on: Streptococcus sp. 'group A'; assay: growth inhibition of control SK(-) GAS strain, dose response, counter-screen for streptokinase expression inhibitor project, luminescence, kanamycin, BacTiterGlo, confirmation (AID 1900); type: functional, organism-based
[16] = tested on: Streptococcus; assay: Group A Streptococcus viability loss, dose response, counter-screen for streptokinase expression inhibitor project, luminescence, BacTiterGlo (AID 1915); type: functional, organism-based;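 further: potency for reduction of bacterial viability or growth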

Sequence of DNA dC->dU-editing enzyme APOBEC-3A (P31941 whole entry, the tested form may be a part): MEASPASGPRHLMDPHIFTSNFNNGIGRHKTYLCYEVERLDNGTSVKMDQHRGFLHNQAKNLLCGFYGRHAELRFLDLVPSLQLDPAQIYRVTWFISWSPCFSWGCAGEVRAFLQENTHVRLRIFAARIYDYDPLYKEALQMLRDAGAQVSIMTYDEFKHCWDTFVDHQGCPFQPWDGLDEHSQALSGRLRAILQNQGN
Sequence of DNA dC->dU-editing enzyme APOBEC-3G (Q9HC16 whole entry): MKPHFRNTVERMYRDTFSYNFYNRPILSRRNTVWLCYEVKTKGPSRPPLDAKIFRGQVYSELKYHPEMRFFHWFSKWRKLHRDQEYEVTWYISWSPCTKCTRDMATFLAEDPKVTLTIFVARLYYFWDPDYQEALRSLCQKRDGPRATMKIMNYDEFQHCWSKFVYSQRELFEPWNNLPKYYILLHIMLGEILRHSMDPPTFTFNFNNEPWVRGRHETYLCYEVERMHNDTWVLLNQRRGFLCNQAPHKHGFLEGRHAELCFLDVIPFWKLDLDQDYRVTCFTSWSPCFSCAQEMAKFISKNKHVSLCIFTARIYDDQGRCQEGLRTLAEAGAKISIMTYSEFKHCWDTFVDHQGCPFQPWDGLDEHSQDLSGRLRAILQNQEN

With CCN(CC)c1ccc(N/C=C2\C(=O)NC(=O)N(c3ccc(Cl)cc3)C2=O)cc1 the CC50 [1] was > 40 µM (active).
For O=C(CSc1nc2sccc2c(=O)[nH]1)N1CCN(c2ccccc2)CC1, the IC50 [2] was 11.5 µM (active), the IC50 [3] was 10.7 µM (active) and the IC50 [4] was 9.27 µM (active).
In the case of Cc1ccc(OCc2nnc(S)n2C2CCCCC2)cc1, the IC50 [5] is reported as 38.6 µM (not active).
With Cc1cccn2c(=O)c3cc(C(=O)NC4CCCC4)c(=N)n(CCCN4CCOCC4)c3nc12 the AC50 [6] was 9.37 µM (active) and the AC50 [7] was 21.5 µM (active).
For COc1ccc(C(=O)C23CC4CC(C2)CC(C(=O)c2ccc(OC)cc2)(C4)C3)cc1, the IC50 [5] was < 0.4 µM (not active).
For Cc1ccsc1/C=N/Nc1nc2ccccc2s1, the IC50 [8] was > 67.6 µM (inactive).
In the case of CCN1C(=O)/C(=C\c2cn(-c3ccccc3)nc2-c2cccnc2)SC1=S, the EC50 [9] is reported as 17.9 µM (active), the EC50 [10] is reported as > 150 µM (inconclusive) and the EC50 [11] is reported as > 150 µM (not active). For the same compound, the IC50 [5] was > 50 µM (not active) and the EC50 [12] was 7.41 µM (inconclusive).
In the case of C=C(C)C1Cc2c(C)nn(-c3cccc4ccccc34)c2C1 (centres undefined), the AC50 [13] is reported as 6.69 µM (active), the EC50 [14] is reported as 16.8 µM (active) and the EC50 [15] is reported as 7.08 µM (active). The EC50 [16] was > 150 µM (not active) and the CC50 [1] was > 40 µM (active).
